# Measurements as given in patent US7332279B2 (Glycozym APS, priority 1999, dated 2008).
# Where two headings read alike, the source gives them in different places.
# Columns and labels:
# [1] = biological target: T1, β3Gal-T5 (Homo sapiens, UniProt Q9Y2C3, M85T); assay: Galactosyltransferase assay, partially purified secreted recombinant β3Gal-T5, saccharide acceptors; format: biochemical; conditions: for β3Gal-T5 activity, substrate concentration 1 mM: acceptor 1 mM; for β3Gal-T5 activity, substrate concentration 5 mM: acceptor 5 mM
# T1 construct: designed to exclude the hydrophobic transmembrane segment and to encode amino acid residues 25-310; secretion signal of vector pAcGP67B (gp67); made in house; host or cells: baculovirus; Sf9 cells (media) and High Five cells (serum-free medium, partially purified)
# T1 sequence (Q9Y2C3 25-310 M85T): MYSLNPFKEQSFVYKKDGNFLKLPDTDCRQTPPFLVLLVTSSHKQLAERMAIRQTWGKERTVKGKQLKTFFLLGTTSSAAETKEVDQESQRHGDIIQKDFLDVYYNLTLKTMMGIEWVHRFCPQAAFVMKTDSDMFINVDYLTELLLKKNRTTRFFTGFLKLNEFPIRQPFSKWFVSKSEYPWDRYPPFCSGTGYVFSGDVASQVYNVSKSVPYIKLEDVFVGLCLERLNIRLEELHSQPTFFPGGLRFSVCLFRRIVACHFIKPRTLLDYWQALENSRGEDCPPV
# Source text: PCR product was cloned into the BamHI site of pAcGP67B (Pharmingen). […] This PCR product was cloned into the BamHI site of pVL1193 (Pharmingen). Both soluble and full length constructs were fully sequenced to confirm fidelity. Plasmids […]5-full were co-transfected with Baculo-GoldTM DNA (Pharmingen) as described previously (Bennett, […]. and Clausen, H. cDNA cloning and expression of a novel human UDP-N-acetyl-alpha-D-galactosamine. Polypeptide N-acetyl-galactosaminyl-transferase, GalNAc-T3. J. Biol. Chem. 271:17006-17012, 1996). Recombinant Baculo-virus were obtained after two successive amplifications in Sf9 cells grown in serum-containing medium, and titers of virus were estimated by titration in 24-well plates with monitoring of enzyme activities. […] J. Biol. […] J. Biol. […] Polypeptide N-acetyl-galactosaminyl-transferase, GalNAc-T3. J. Biol. Chem. 271:17006-17012, 1996). For large scale expression amplified virus was used to infect High FiveTM cells grown in serum-free media (Invitrogen) in upright roller bottles shaking at 140 rpm and 27° C. The kinetic properties were determined with partially purified, secreted forms of the enzymes. Semipurification of enzymes from serum-free medium of infected High-FiveTM cells was performed by sequential Amberlite, DEAE-Sephacel and 5-Sepharose chromatography as described previously ([…]., et al. […] J. Biol. Chem. 272:23503-23514, 1997). Comparisons of enzymes were performed relatively to the activity obtained with βGlcNAc-Bz1 (Tables II and III). Full length enzymes were assayed with 1% Triton CF54 homogenates of washed cells. […] Reaction products were quantified by Dowex-1 chromatography. […] P. and Clausen, H. […] J. Biol. Chem. 273:29295-29305, 1998). The transfer of Gal was evaluated after acid precipitation by filtration through Whatman GF/C glass fibre filters. […] Assays with glycolipid acceptors were conducted as previously described (Holmes, E. H. […] Arch Biochem Biophys 270:630-646, 1989) in reaction mixtures containing 2.5 μmol HEPES buffer, pH 7.2, μmol MnCl2, 100 μg taurodeoxycholate or Triton CF-54, 20 μg acceptor glycolipid, 15 nmol UDP-[^14C]-galactose (13,000 cpm/nmol) and enzyme in a total volume of 100 μl. Conditions for incubation and product isolation were as previously described (Id.).
# [2] = biological target: T2, β3Gal-T1 (Homo sapiens, UniProt Q9Y5Z6); assay: Galactosyltransferase assay, recombinant β3Gal-T1, saccharide acceptors; format: biochemical
# T2 construct: The kinetic properties were determined with partially purified, secreted forms of the enzymes; made in house; host or cells: baculovirus; Sf9 / High Five insect cells, medium
# T2 sequence (Q9Y5Z6 27-326 limits assumed): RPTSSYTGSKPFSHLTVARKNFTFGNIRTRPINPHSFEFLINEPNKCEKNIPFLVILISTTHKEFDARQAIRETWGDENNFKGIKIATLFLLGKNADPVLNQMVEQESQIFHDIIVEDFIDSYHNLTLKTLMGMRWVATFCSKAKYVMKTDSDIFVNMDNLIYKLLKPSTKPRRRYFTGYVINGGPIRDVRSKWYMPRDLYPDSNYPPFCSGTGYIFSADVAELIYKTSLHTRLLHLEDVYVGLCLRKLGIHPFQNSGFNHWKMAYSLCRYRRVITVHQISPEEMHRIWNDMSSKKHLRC
Structure (SMILES),"β3Gal-T5 activity, acceptor 0.2 mM [1] [nmol/min]","β3Gal-T5 ratio to value with βGlcNAc-Bzl, acceptor 0.2 mM [1]","β3Gal-T5 activity, acceptor 2 mM [1] [nmol/min]","β3Gal-T5 ratio to value with βGlcNAc-Bzl, acceptor 2 mM [1]",Vmax ([1]; Table V) [pmol/min],"Km ([1]; Table V, read-out: Km) [µM]","β3Gal-T5 activity, substrate concentration 1 mM [1] [nmol/min/mL]","β3Gal-T5 activity, substrate concentration 5 mM [1] [nmol/min/mL]","Km ([1]; acceptor substrate, read-out: apparent Km of β3Gal-T5) [µM]","β3Gal-T1 activity, acceptor 0.2 mM [2] [nmol/min]","β3Gal-T1 ratio to value with βGlcNAc-Bzl, acceptor 0.2 mM [2]","β3Gal-T1 activity, acceptor 2 mM [2] [nmol/min]","β3Gal-T1 ratio to value with βGlcNAc-Bzl, acceptor 2 mM [2]",β3Gal-T5 activity with β-D-GlcNAc-Bzl (Table III) ([1]; β-D-GlcNAc-Bzl at 20 mM) [nmol/min],β3Gal-T5 activity with βGlcNAc-Bzl ([1]; β-D-GlcNAc-Bzl at 20 mM) [nmol/min],β3Gal-T1 activity with β-D-GlcNAc-Bzl (Table III) ([2]; β-D-GlcNAc-Bzl at 80 mM) [nmol/min],β3Gal-T1 activity with βGlcNAc-Bzl ([2]; β-D-GlcNAc-Bzl at 80 mM) [nmol/min]
CC(=O)NC1C(OC2C(O)C(CO)OC(Oc3ccc([N+](=O)[O-])cc3)C2NC(C)=O)OC(CO)C(O)C1O [β-D-GlcNAc-(1–3)-α-D-GalNAc-p-Nph],0.3,(0.3),0.2,(2.0),931.1,2800,10.8,34.4,2800,0.0,(0.0),0.0,(0.0),–,–,–,–
CC(=O)N[C@H]1[C@H](OCc2ccccc2)O[C@H](CO)[C@@H](O)[C@@H]1O [β-D-GlcNAc-Bzl],–,–,–,–,873.4,20400,1.5,3.9,–,–,–,–,–,0.1,0.1,0.03,0.03
"CC(=O)N[C@H]1[C@H](OC[C@H]2O[C@H](Oc3ccc([N+](=O)[O-])cc3)[C@H](NC(C)=O)[C@@H](O[C@@H]3O[C@H](CO)[C@H](O)[C@H](O)[C@H]3O)[C@H]2O)O[C@H](CO)[C@@H](O)[C@@H]1O [βGlcNAc(1,6)[βGal(1,3)]αGalNAc-p-Nph]",0.0,(0.0),0.01,(0.1),–,–,–,–,–,0.0,(0.0),0.0,(0.0),–,–,–,–
